Experimental data taken from patent US11497729B2, “Methods and materials for treating cancer” (Mayo Foundation for Medical Education and Research, priority 2016, dated 2022).
Entries after “also recorded” stand apart in the source; their conditions may differ.

How the values were obtained:
[1] = test system: HER2+ breast cancer cells; experiment: Cell survival by MTS assay, Herceptin with or without P005091; assay type: cell-based; conditions: FIG. 4A
Method: (§1) P005091 increased the efficacy of the HER2 inhibitor, trastuzumab, in HER2^+ breast cancer cells, xenografts, and PDX models. HER2^+ breast cancer cells were treated with indicated concentrations of Herceptin with or without 10 μM P005091 for 72 hours. Cell survival was determined by MTS assays. Data was shown as mean values for three independent experiments, and error bars represent standard error of the mean (SEM) (n=3) (FIG. 4A). Tumor xenografts were initiated by subcutaneous inoculation of Bt474 parental and Bt474 Herceptin resistance cells in the lower back of SCID mice. Herceptin (15 mg/kg) and P005091 (10 mg/kg) were administered intraperitoneally once a week for the entire duration of the study. […] A HER2^+ patient derived xenograft model was tested by inoculation of tissues in the lower back of SCID mice (FIG. 4C). Drug treatment was same as described above. Data represent the mean±SD of 6 mice in each group.

[2] = test system: HER2+ patient derived xenograft; experiment: HER2+ patient derived xenograft model in SCID mice; assay type: in vivo; conditions: Herceptin 15 mg/kg and P005091 10 mg/kg intraperitoneally once a week, FIG. 4C
Method: as §1

HER1 (EGFR) = experiment: Western blot of ZR-75-1 cell lysates, HER1; assay type: cell-based; conditions: ZR-75-1 cells, 10 μM P005091 for 12 hours; FIG. 5
Method: (§2) Breast cancer cells ZR-75-1 were treated with either 1% DMSO or 10 μM P005091 for 12 hours. Cell lysates were subjected to western blot with indicated antibodies (FIG. 5).

HER2 = experiment: Western blot of ZR-75-1 cell lysates, HER2; assay type: cell-based; conditions: ZR-75-1 cells, 10 μM P005091 for 12 hours; FIG. 5
Method: as §2

HER3 = experiment: Western blot of ZR-75-1 cell lysates, HER3; assay type: cell-based; conditions: ZR-75-1 cells, 10 μM P005091 for 12 hours; FIG. 5
Method: as §2

HER4 = experiment: Western blot of ZR-75-1 cell lysates, HER4; assay type: cell-based; conditions: ZR-75-1 cells, 10 μM P005091 for 12 hours; FIG. 5
Method: as §2

CC(=O)c1cc([N+](=O)[O-])c(Sc2cccc(Cl)c2Cl)s1 [P005091, 1-[5-(2,3-dichlorophenyl)sulfanyl-4-nitrothiophen-2-yl]ethanone]
sensitization effect in HER2 resistant breast cancer cell lines ([1]; HER2 resistant breast cancer cell lines): sensitization effect occurred | sensitization of HER2+ breast cancer cells to trastuzumab treatment (cell survival) ([1]; four different HER2+ breast cancer cells, 10 μM P005091 with Herceptin for 72 hours): sensitizes; also recorded: dramatically sensitized | sensitivity of PDX model to treatment [2]: dramatically sensitized | HER1 (EGFR) protein level by Western blot (HER1 (EGFR)): down regulated | HER2 protein level by Western blot (HER2): down regulated | HER3 protein level by Western blot (HER3): down regulated | HER4 protein level by Western blot (HER4): down regulated
